Columns and labels:
Assay in all cases: relative viability (nuclei count vs DMSO), 5 days (fraction); higher = more cells survive
BEN = tested on: BEN
In short: (§1)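 Cells from lung cancer lines were seeded into 1536-well plates and, one day later, dosed by pin tool. Treatments were either a single drug or a fixed dose of an anchor drug with five library-drug doses (not always all listed) in √10 steps. After 5 days, nuclei were stained in a one-step fixation (final 0.05% Triton X-100, 1% formaldehyde, 1 ug/ml Hoechst) and counted on 4× images, and relative viability is the treated-to-vehicle nuclei ratio, as the median of duplicate plates.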

ChaGo-K-1 = tested on: ChaGo-K-1
In short: as §1

EKVX = tested on: EKVX
In short: as §1

HCC-827 = tested on: HCC-827
In short: as §1

HOP-62 = tested on: HOP-62
In short: as §1

LCLC-103H = tested on: LCLC-103H
In short: as §1

LK-2 = tested on: LK-2
In short: as §1

LOU-NH91 = tested on: LOU-NH91
In short: as §1

LXF-289 = tested on: LXF-289
In short: as §1

NCI-H1355 = tested on: NCI-H1355
In short: as §1

NCI-H1437 = tested on: NCI-H1437
In short: as §1

NCI-H1666 = tested on: NCI-H1666
In short: as §1

NCI-H1944 = tested on: NCI-H1944
In short: as §1

NCI-H1993 = tested on: NCI-H1993
In short: as §1

NCI-H2126 = tested on: NCI-H2126
In short: as §1

NCI-H2170 = tested on: NCI-H2170
In short: as §1

NCI-H441 = tested on: NCI-H441
In short: as §1

NCI-H647 = tested on: NCI-H647
In short: as §1

NCI-H727 = tested on: NCI-H727
In short: as §1

PC-14 = tested on: PC-14
In short: as §1

RERF-LC-KJ = tested on: RERF-LC-KJ
In short: as §1

## CCNC(=O)c1noc(-c2cc(C(C)C)c(O)cc2O)c1-c1ccc(CN2CCOCC2)cc1 [Luminespib] + NC(=O)Nc1cc(-c2cccc(F)c2)sc1C(=O)N[C@H]1CCCNC1 [AZD7762] (partner 0.2 µM)
BEN; first compound 0.002 µM
  relative viability: 0.687
BEN; first compound 0.006325 µM
  relative viability: 0.669
BEN; first compound 0.02 µM
  relative viability: 0.405
BEN; first compound 0.06325 µM
  relative viability: 0.516
BEN; first compound 0.2 µM
  relative viability: 0.272
ChaGo-K-1; first compound 0.002 µM
  relative viability: 0.9
ChaGo-K-1; first compound 0.006325 µM
  relative viability: 0.905
ChaGo-K-1; first compound 0.02 µM
  relative viability: 0.799
ChaGo-K-1; first compound 0.06325 µM
  relative viability: 0.515
ChaGo-K-1; first compound 0.2 µM
  relative viability: 0.172
EKVX; first compound 0.002 µM
  relative viability: 0.669
EKVX; first compound 0.006325 µM
  relative viability: 0.68
EKVX; first compound 0.02 µM
  relative viability: 0.475
EKVX; first compound 0.06325 µM
  relative viability: 0.239
EKVX; first compound 0.2 µM
  relative viability: 0.104
HCC-827; first compound 0.002 µM
  relative viability: 0.162
HCC-827; first compound 0.006325 µM
  relative viability: 0.234
HCC-827; first compound 0.02 µM
  relative viability: 0.16
HCC-827; first compound 0.06325 µM
  relative viability: 0.124
HCC-827; first compound 0.2 µM
  relative viability: 0.0952
HOP-62; first compound 0.002 µM
  relative viability: 0.437
HOP-62; first compound 0.006325 µM
  relative viability: 0.463
HOP-62; first compound 0.02 µM
  relative viability: 0.306
HOP-62; first compound 0.06325 µM
  relative viability: 0.129
HOP-62; first compound 0.2 µM
  relative viability: 0.109
LCLC-103H; first compound 0.002 µM
  relative viability: 0.934
LCLC-103H; first compound 0.006325 µM
  relative viability: 0.699
LCLC-103H; first compound 0.02 µM
  relative viability: 0.639
LCLC-103H; first compound 0.06325 µM
  relative viability: 0.739
LCLC-103H; first compound 0.2 µM
  relative viability: 0.726
LK-2; first compound 0.002 µM
  relative viability: 0.37
LK-2; first compound 0.006325 µM
  relative viability: 0.481
LK-2; first compound 0.02 µM
  relative viability: 0.278
LK-2; first compound 0.06325 µM
  relative viability: 0.0715
LK-2; first compound 0.2 µM
  relative viability: 0.0593
LOU-NH91; first compound 0.002 µM
  relative viability: 0.797
LOU-NH91; first compound 0.006325 µM
  relative viability: 0.799
LOU-NH91; first compound 0.02 µM
  relative viability: 0.66
LOU-NH91; first compound 0.06325 µM
  relative viability: 0.322
LOU-NH91; first compound 0.2 µM
  relative viability: 0.318
LXF-289; first compound 0.002 µM
  relative viability: 1.07
LXF-289; first compound 0.006325 µM
  relative viability: 1.1
LXF-289; first compound 0.02 µM
  relative viability: 1.12
LXF-289; first compound 0.06325 µM
  relative viability: 0.151
LXF-289; first compound 0.2 µM
  relative viability: 0.0914
NCI-H1355; first compound 0.002 µM
  relative viability: 0.822
NCI-H1355; first compound 0.006325 µM
  relative viability: 0.693
NCI-H1355; first compound 0.02 µM
  relative viability: 0.526
NCI-H1355; first compound 0.06325 µM
  relative viability: 0.324
NCI-H1355; first compound 0.2 µM
  relative viability: 0.145
NCI-H1437; first compound 0.002 µM
  relative viability: 1.11
NCI-H1437; first compound 0.006325 µM
  relative viability: 1.04
NCI-H1437; first compound 0.02 µM
  relative viability: 1.15
NCI-H1437; first compound 0.06325 µM
  relative viability: 0.785
NCI-H1437; first compound 0.2 µM
  relative viability: 0.278
NCI-H1666; first compound 0.002 µM
  relative viability: 0.828
NCI-H1666; first compound 0.006325 µM
  relative viability: 0.835
NCI-H1666; first compound 0.02 µM
  relative viability: 0.903
NCI-H1666; first compound 0.06325 µM
  relative viability: 0.78
NCI-H1666; first compound 0.2 µM
  relative viability: 0.589
NCI-H1944; first compound 0.002 µM
  relative viability: 0.525
NCI-H1944; first compound 0.006325 µM
  relative viability: 0.426
NCI-H1944; first compound 0.02 µM
  relative viability: 0.307
NCI-H1944; first compound 0.06325 µM
  relative viability: 0.149
NCI-H1944; first compound 0.2 µM
  relative viability: 0.134
NCI-H1993; first compound 0.002 µM
  relative viability: 0.759
NCI-H1993; first compound 0.006325 µM
  relative viability: 0.772
NCI-H1993; first compound 0.02 µM
  relative viability: 0.513
NCI-H1993; first compound 0.06325 µM
  relative viability: 0.247
NCI-H1993; first compound 0.2 µM
  relative viability: 0.237
NCI-H2126; first compound 0.002 µM
  relative viability: 0.984
NCI-H2126; first compound 0.006325 µM
  relative viability: 1.01
NCI-H2126; first compound 0.06325 µM
  relative viability: 0.846
NCI-H2126; first compound 0.2 µM
  relative viability: 0.296
NCI-H2170; first compound 0.002 µM
  relative viability: 0.868
NCI-H2170; first compound 0.006325 µM
  relative viability: 0.851
NCI-H2170; first compound 0.06325 µM
  relative viability: 0.118
NCI-H2170; first compound 0.2 µM
  relative viability: 0.104
NCI-H441; first compound 0.002 µM
  relative viability: 1.08
NCI-H441; first compound 0.006325 µM
  relative viability: 1.05
NCI-H441; first compound 0.02 µM
  relative viability: 1.18
NCI-H441; first compound 0.06325 µM
  relative viability: 0.308
NCI-H441; first compound 0.2 µM
  relative viability: 0.126
NCI-H647; first compound 0.002 µM
  relative viability: 0.506
NCI-H647; first compound 0.006325 µM
  relative viability: 0.538
NCI-H647; first compound 0.02 µM
  relative viability: 0.176
NCI-H647; first compound 0.06325 µM
  relative viability: 0.0596
NCI-H647; first compound 0.2 µM
  relative viability: 0.0506
NCI-H727; first compound 0.002 µM
  relative viability: 0.53
NCI-H727; first compound 0.006325 µM
  relative viability: 0.493
NCI-H727; first compound 0.02 µM
  relative viability: 0.57
NCI-H727; first compound 0.06325 µM
  relative viability: 0.36
NCI-H727; first compound 0.2 µM
  relative viability: 0.323
PC-14; first compound 0.002 µM
  relative viability: 0.32
PC-14; first compound 0.006325 µM
  relative viability: 0.38
PC-14; first compound 0.02 µM
  relative viability: 0.179
PC-14; first compound 0.06325 µM
  relative viability: 0.102
PC-14; first compound 0.2 µM
  relative viability: 0.0933
RERF-LC-KJ; first compound 0.002 µM
  relative viability: 0.936
RERF-LC-KJ; first compound 0.006325 µM
  relative viability: 0.998
RERF-LC-KJ; first compound 0.02 µM
  relative viability: 0.683
RERF-LC-KJ; first compound 0.06325 µM
  relative viability: 0.533
RERF-LC-KJ; first compound 0.2 µM
  relative viability: 0.178
